Measurements reported in patent publication US4593090A, “Novel nitrosourea compounds, method for preparing same, and pharmaceutical composition containing same” (Gogo Kimura, priority 1981, dated 1986).

Assays:
Leukemia L1210 = test: Activity against Leukemia L1210, intraperitoneal, increase in life span of mice; assay type: in vivo, female mice (BDF1 family); settings: for O.D. (optimum dosage) / ILS30 / ED (maximum ILS) / ED30: ip once a day for 5 successive days; for O.D. (optimum dosage) / ED (maximum ILS): daily dosage giving maximum increase of life span; for ILS30 / ED30: daily dosage increasing average survival days by 30%; for Survivors after 60 days / Max. ILS % / Therapeutic ratio TR: ip; for Survivors after 60 days: 6-membered group; for Max. ILS %: 60-day observation, versus control; for Therapeutic ratio TR: O.D./ILS30; for ED (maximum ILS) / ED30: Mus musculus, L1210, ip; for ED (maximum ILS): read-out: O.D. (optimum dosage); for ED30: read-out: ILS30
Method: Tests were conducted in accordance with the method for measuring antitumor activity of National Cancer Center Tokyo (A, Hoshi et al, Farumashia 9 464 (1973)). Test compounds were each intraperitoneally (referred to as ip) or orally (referred to as op) administered once a day for 5 successive days to a 6-membered group of femal mice (BDF1 family, each weighing 20 to 23 g) 24 hours after 1×10^5 cells of Leukemia L1210 have been implantated into the abdominal cavities of the mice, and the effect was evaluated by comparing the survival days of treated groups with those of an untreated group of mice (control group) in 60-day observation. An increase percentage of life span (ILS%) was calculated from said average survival days compared with those of the control group. Further, therapeutic ratio (O.D./ILD30, referred to as T.R.) of each tested compound was calculated from the daily dosage of the compound necessary to increase said average survival days by 30% as compared with the control group (this dosage is referred to as ILS 30) and the daily dosage giving a maximum increase of life span to mice implantated with L1210 cells, namely an optimum dosage (referred to as O.D.). The results of five successive days intraperitoneal administrations of test compounds were shown in Tables I to III, and those of five successive oral administrations in Table IV.

[1] = Acute toxicity (LD50, Behrens-Karber method); assay type: in vivo, ICR mice; settings: ip, mortality during 30 days; for LD50 at 720 h: mouse, in vivo
Method: Test compounds, dissolved or suspended in 0.5% aqueous CMC, were each intraperitoneally administered to ICR mice in a dose of 0.1 ml per 10 g body weight. LD50 (mg/kg) value of each test compound was calculated from the mortality of mice during 30 days by the Behrens-Karber method.

Compound | O.D. (optimum dosage) (Leukemia L1210) [mg/kg] | ILS30 (Leukemia L1210) [mg/kg] | Survivors after 60 days (Leukemia L1210) | Max. ILS % (Leukemia L1210) [%] | Therapeutic ratio TR (Leukemia L1210) | LD50 [1] [mg/kg] | ED (maximum ILS) (Leukemia L1210) [mg/kg] | ED30 (Leukemia L1210) [mg/kg] | LD50 at 720 h [1] [mg/kg] | LD50 ([1]; 43200 min) [mg/kg]
3-(2-methoxyethyl)-3-(1-methoxyethyl α-D-glucopyranose-3-yl)-1-(2-chloroethyl)-1-nitrosourea [Compound 80] | 200 | 4.17 | 5/6 | > 625 | 48.0 | 640 |  |  |  | 
CCCO[C@H]1O[C@H](CN(CC(C)C)C(=O)N(CCCl)N=O)[C@@H](O)[C@H](O)[C@H]1O [Compound 1, 3-isobutyl-3-(n-propyl α-D-glucopyranose-6-yl)-1-(2-chloroethyl)-1-nitrosourea] |  |  | 6/6 | > 700 | 40.5 |  | 120 | 2.96 | 340 | 
CO[C@H]1O[C@H](CO)[C@@H](O)[C@H](O)[C@H]1NC(=O)N(CCCl)N=O [Compound 2MCαG, 3-(methyl α-D-glucopyranose-2-yl)-1-(2-chloroethyl)-1-nitrosourea, reference compound] |  |  | 5/6 | > 625 | 13.2 |  | 15.2 | 1.15 | 46 | 
CCCCO[C@H]1O[C@H](CN(CCC)C(=O)N(CCCl)N=O)[C@@H](O)[C@H](O)[C@H]1O [Compound 5, 3-n-propyl-3-(n-butyl α-D-glucopyranose-6-yl)-1-(2-chloroethyl)-1-nitrosourea] |  |  | 6/6 | > 700 | 38.5 |  | 100 | 2.6 | 325 | 
CCCCO[C@H]1O[C@H](CN(CCCC)C(=O)N(CCCl)N=O)[C@@H](O)[C@H](O)[C@H]1O [Compound 6, 3-n-butyl-3-(n-butyl α-D-glucopyranose-6-yl)-1-(2-chloroethyl)-1-nitrosourea] |  |  | 6/6 | > 700 | 40.0 |  | 120 | 3 | 390 | 
CCCCN(C[C@H]1O[C@H](OC)[C@H](O)[C@@H](O)[C@@H]1O)C(=O)N(CCCl)N=O [Compound 6MCαGB, 3-n-butyl-3-(methyl α-D-glucopyranose-6-yl)-1-(2-chloroethyl)-1-nitrosourea, reference compound] |  |  | 4/6 | > 440 | 22.4 |  | 30 | 1.34 | 92 | 
CO[C@H]1O[C@H](CN(CCO)C(=O)N(CCCl)N=O)[C@@H](O)[C@H](O)[C@H]1O [Compound 6MCαGHE, 3-(2-hydroxyethyl)-3-(methyl α-D-glucopyranose-6-yl)-1-(2-chloroethyl)-1-nitrosourea, reference compound] |  |  | 4/6 | > 440 | 21.4 |  | 30 | 1.4 | 90 | 
CO[C@H]1O[C@H](CNC(=O)N(CCCl)N=O)[C@@H](O)[C@H](O)[C@H]1O [Compound 6MCαGM, 3-(methyl α-D-glucopyranose-6-yl)-1-(2-chloroethyl)-1-nitrosourea, reference compound] | 29.1 | 1.45 | 4/6 | > 450 | 20.1 |  |  |  |  | 88
CCCCCCN(C[C@H]1O[C@H](OCCCC)[C@H](O)[C@@H](O)[C@@H]1O)C(=O)N(CCCl)N=O [Compound 7, 3-n-hexyl-3-(n-butyl α-D-glucopyranose-6-yl)-1-(2-chloroethyl)-1-nitrosourea] |  |  | 5/6 | > 620 | 26.9 |  | 140 | 5.2 | 410 | 
